# In patent US20220080015A1, “METHOD OF PREVENTING AND TREATING NEURODEGENERATIVE DISORDERS USING SOPHORA JAPONICA L. EXTRACT AS ACTIVE INGREDIENT” (UNIVERSITY-INDUSTRY COOPERATION GROUP OF KYUNG HEE …, priority 2016, published 2022):
# Test system: Alzheimer's disease-induced mouse model (amyloid beta1-42 peptide-infused mouse model)
# Experiment: Morris water maze test (memory test)
# Type: in vivo, C57BL/6 mouse
# Settings: Aβ-infused mice + donepezil 1 mg/kg (positive control); platform removed, 60 seconds free swimming; average ± S.E.M.
# Procedure: Specifically, the following experiment was carried out by applying a conventional Morris method. First, a mouse was transferred to a behavior observation chamber and stabilized one hour before the initiation of the experiment. The maze dimension includes a diameter of 90 cm and a height of 32.5 cm, and the diameter of a white platform is 5 cm. In the periphery of the underwater maze, spatial cues such as a computer system connected with a video camera and a device for controlling a water temperature were always regularly maintained. Afterward, the maze was filled with water so that the platform is installed 1 cm below the water level, such that a mouse cannot see the platform. The maze was divided into quadrants using four markers, the quadrants were classified as northeast (NE), northwest (NW), southeast (SE), and southwest (SW), and the platform was installed in one quadrant of the maze. […] On the sixth day, the platform was removed from the maze, and then the residence time of a mouse in the quadrant in which the platform was placed was measured. On the final day […] of the Morris water maze test, to perform a memory test, the platform was removed, free swimming was allowed for 60 seconds, and the residence time of a mouse in the quadrant in which the platform was placed was measured in percentage using a Smart program.
smiles,measurement,value
COc1cc2c(cc1OC)C(=O)C(CC1CCN(Cc3ccccc3)CC1)C2 (stereo not shown) [donepezil],Residence time in quadrant (%),59.222±2.918%
